Measured values reported in patent US4110465A, “7-Amino and 7-alkanoylamino 2-oxo-3-phenylindolines” (Eli Lilly and Company, priority 1977, dated 1978).

What was measured:
[1] = tested on: collagen-induced platelet aggregation; experiment: collagen-induced platelet aggregation (P.A.) inhibition after oral dosing; assay type: in vivo, guinea pigs; conditions: 2 doses at time zero and 2 hours later, blood removed 60 minutes after last dose, 0.05 ml. of 1:45 collagen dilution
Procedure: Certain of the compounds of this invention are also platelet aggregation inhibitors and the results of testing for this activity are also included in Table I. The platelet aggregation test used involves the effect of a drug upon collagen-induced platelet aggregation using the method of Hermann et al., Proc. Soc. Exp. Biol. Med. 136, 548 (1972). According to this procedure, 300-400 g. guinea pigs are used and the compound is administered by the oral route in 2 doses, at time zero and again 2 hours later, at a series of graded dose levels to groups of 4 pigs each. One group is maintained as a control group. Blood is removed by heart puncture 60 minutes after the last dose, and a platelet-rich plasma prepared therefrom. A stock collagen solution is prepared by solubilizing bovine Achilles tendon with acetic acid. The stock solution contains 0.25 percent collagen, has a pH of 2.8 and is kept under refrigeration. […] (Activity was determined by computor printout with significance at the 95 percent confidence level being attained at about the 50 percent inhibition level). In Table 1, column 1 gives the name of the compound, column 2, the ED50 for erythema blocking calculated as set forth above and column 3, the lowest active dose in the platelet aggregation test.

[2] = tested on: erythema produced by an ultra-violet light source on guinea pig skin; experiment: UV-light-induced erythema blocking on guinea pig skin (anti-inflammatory activity); assay type: in vivo, albino guinea pigs; conditions: Cavia porcellus; oral, suspension in 1 percent aqueous sodium carboxymethylcellulose; groups of 4 guinea pigs; obtained directly or by extrapolation; read-out: ED50 for erythema blocking (dose producing 50 percent inhibition of the erythemic response)
Procedure: The compounds of this invention are anti-inflammatory and anti-thrombotic agents. […] Int. Pharmacodyn, 116, 261 (1958). In this procedure, albino guinea pigs weighing 225-300 gms. are shaved on the back and chemically depilated 18 to 20 hours before initiation of the test procedures. Animals in groups of 4 are given predetermined dosages of the drug under test with one group being maintained as a control group. The drug is administered by the oral route as a suspension in 1 percent aqueous sodium carboxymethylcellulose. The control animals receive only the suspending medium. After having being given the drug or suspension medium only, each group of animals is exposed to a high-intensity ultra-violet light for a predetermined period of time, the ultra-violet light being placed in contact with the depilated skin area on the animals' back. A gummed paper reinforcement is affixed to the lamp lens to provide an unexposed area of contrast for grading the light-produced erythema.
Beginning one hour after exposure and thereafter an half-hour intervals for another 1.5 hours, a trained observer grades erythema using an arbitrary scoring system based upon the degree of contrast and redness formed. […] The following scoring system is used:
Total scores from each treatment group of four guinea pigs are compared to the control treatment, and the percent inhibition calculated as follows: [formula] […]

Compound | P.A., lowest active dose in the platelet aggregation test (active = about 50% inhibition of collagen-induced aggregation) [1] [mg/kg × 2] | ED50 [2] [mg/kg]
Nc1cccc2c1NC(=O)C2c1ccccc1 (stereo not shown) [2-oxo-3-phenyl-7-aminoindoline] | 100 | 10.2
CC(=O)Nc1cccc2c1NC(=O)C2c1ccccc1 (stereo not shown) [N-(2-oxo-3-phenyl-7-indolinyl)-acetamide, N-(2-oxo-3-phenyl-7-indolinyl)acetamide] | 3.12 | 20
